Experiments:
[1] = test system: subjects with Type-2 Diabetes Mellitus (T2DM); assay: Oral glucose tolerance test (OGTT): serum glucose pharmacodynamic response; type: in vivo, human; conditions: baseline corrected, after 75-gram OGTT 30 min post-dose, Days 5, 10, 15
Protocol: (§1) On Days 5, 10 and 15, a 75-gram glucose solution (oral glucose tolerance test, OGTT) was administered 30 min post-drug administration. No breakfast was provided.
(§2) Pharmacodynamic (PD) responses, i.e., serum levels of glucose, insulin and C-peptide and plasma levels of glucagon, were evaluated on Days 5, 10 and 15: pre-dose (within 60 min prior to glucose intake) and at 0.5, 1, 1.5, 2, 2.5, 3 and 4 h post-glucose intake. Urine was collected for urinary glucose excretion on Days 5, 10 and 15: pre-dose (for bladder emptying only, no pre-dose glucose measurement), and over a series of intervals (0-2 h, 2-4 h, 4-6 h, 6-8 h, 8-12 h and 12-24 h post-dose).

[2] = test system: subjects with Type-2 Diabetes Mellitus (T2DM); assay: Oral glucose tolerance test (OGTT): serum C-peptide pharmacodynamic response; type: in vivo, human; conditions: baseline corrected, after 75-gram OGTT, Days 5, 10, 15
Protocol: as §1, §2

[3] = in vivo
Protocol: This phase I study accessed the pharmacokinetic interaction between dorzagliatin and empagliflozin in T2DM subjects.
Sixteen eligible subjects were enrolled and 15 of them completed the study.
All subjects received: (i) empagliflozin (25 mg, QD) on Days 1-5; and empagliflozin was taken 60 min prior to meals (except on Day 5, when it was administered 30 min before glucose intake); (ii) empagliflozin (25 mg, QD) and dorzagliatin (75 mg, BID) on Days 6-10 (only the morning dose on Day 10); and empagliflozin and dorzagliatin were taken 60 min prior to meals (except on Day 10, when they were administered 30 min before glucose intake); or (iii) dorzagliatin 75 mg BID on Days 11-15 (only the morning dose on Day 15); and dorzagliatin was taken 60 min prior to meals (except on Day 15, when it was administered 30 min before glucose intake).
Blood samples for the determination of dorzagliatin and empagliflozin concentrations and corresponding pharmacokinetic (PK) analysis were collected at the following time points on Days 5, 10 and 15: pre-dose (within 30 min prior to drug dosing) and at 0.25, 0.5, 1, 1.5, 2, 3, 4, 6, 8, 10, 12, 18 and 24 h post-dose. […]
The plasma concentration-time data for dorzagliatin and empagliflozin were analyzed using non-compartmental methods to calculate PK parameters.

Structure (SMILES)	Glucose response AUEC0-4 h, mean [1] [mg·h/dL]	Glucose response CEav, mean [1] [mg/dL]	Glucose response CEmax, mean [1] [mg/dL]	C-peptide response AUEC0-4 h, mean [2] [ng·h/mL]	C-peptide response CEav, mean [2] [ng/mL]	C-peptide response CEmax, mean [2] [ng/mL]	effect of empagliflozin on dorzagliatin PK parameters (drug-drug interaction) [3]	effect of dorzagliatin on empagliflozin PK parameters (drug-drug interaction) [3]
OC[C@H]1O[C@@H](c2ccc(Cl)c(Cc3ccc(OC4CCOC4)cc3)c2)[C@H](O)[C@@H](O)[C@@H]1O (stereo in doubt) [Empagliflozin, (2S,3R,4R,5S,6R)-2-[4-chloro-3({4-[(3S)-oxolan-3-yloxy]phenyl}methyl)phenyl]-6-(hydroxymethyl)oxane-3,4,5-triol]	452	113	199	11	2.7	4.7	did not have a significant effect on dorzagliatin PK parameters	–
CC(C)C[C@@H](C(=O)Nc1ccn(C[C@@H](O)CO)n1)N1CC(Oc2ccccc2Cl)=CC1=O [Dorzagliatin, (S)-2-(4-(2-chlorophenoxy)-2-oxo-2,5-dihydro-1H-pyrrol-1-yl)-N-(1-((R)-2,3-dihydroxypropyl)-1H-pyrazol-3-yl)-4-methylpentanamide]	364	91	163	13	3.2	5.5	–	did not have a significant effect on empagliflozin PK parameters

Source: patent US11813274B2, “Treating untreated or treatment-resistant diabetes with glucokinase activator and sodium-glucose cotransporter-2 inhibitor” (HUA Medicine (Shanghai) Ltd., priority 2020, dated 2023)
